Converted amounts (≈) assume the structure as drawn. “And” between values parts separate entries of the source, which are not always exact repeats. Equal values may be shown once. Marks after values point to notes of the source that are not given here.
Key:
[1] = Dynamic light scattering (DLS/SLS) of ligand nano-aggregates; format: physicochemical; conditions: for formation of nano-aggregates (DLS autocorrelation function): 1 mM ligand, 25°C, buffer with 2% DMSO
Experimental: All DLS experiments were carried out at 25°C with the DynaPro NanoStar 192-DPN apparatus (Wyatt Technology) equipped with 661 nm laser. The autocorrelation function for the light scattered by 5-BrBt or TBBt buffered solution placed in Eppendorf disposable cuvettes (50–2000 μl) was measured at various solute concentrations in the range of 0.5 μs– 0.1 s, and further decomposed to the distribution of particle size (ranging from 0.18 nm to 2.5 μm) using Dynamics software (Wyatt Technology, ver. 7.0.2.7). Solutions with 2% (v/v) DMSO content were prepared in 25 mM Tris-HCl (pH 8, 0.5 M NaCl) filtered with 0.22 μm pore size syringe filter. All samples were centrifuged (9000 g) for 3 minutes immediately before the experiment. For each sample a series of at least 30 repetitions, 10 s each, has been collected, and those with abnormally high SOS function and/or with highly fluctuating SLS signal were removed from the analysis. All remaining data have been averaged to obtain the autocorrelation function (ACF) of a reasonable quality. This procedure was found indispensable for diluted TBBt solutions, in which large aggregates have rarely scattered light crossing the laser beam. Consequently, extreme fluctuations of ACF precluded direct analysis of the time-evolution of TBBt aggregates. However, the raw SLS signal was found applicable to estimate the rate of aggregate disintegration.

[2] = UV-VIS spectroscopy, deviation from Lambert-Beer law (ligand aggregation); format: physicochemical
Experimental: The absorption spectra (200–500 nm) were collected at 25°C using Varian Cary 50 UV-VIS spectrophotometer equipped with 1 cm quartz cells. The initial buffer solution was manually titrated with the 851 μM TBBt solution to record spectra for increasing solute concentration. For each sample UV-VIS spectrum was collected four times, every 20 s including 15 s acquisition time, starting 5 s after solute dilution. The changes in the absorption spectrum of 40 μM TBBt sample, prepared just before the experiment, were additionally tracked for an hour to follow possible disintegration of soluble aggregates.

[3] = set-up: method as in http://www.sigmaaldrich.com/catalog/product/sigma/t0826; conditions: ref http://www.sigmaaldrich.com/catalog/product/sigma/t0826; cited from earlier work
[4] = biological target: T1, catalytic subunit of human protein kinase CK2 (hCK2α) (Homo sapiens, UniProt P68400); experiment: Microscale Thermophoresis (MST), global fit of two independent binding sites; conditions: for Kd: global fit of 6 pseudo-titrations
T1 construct: made in house
Experimental: For MST experiments the protein sample additionally contained 5 mM β-mercaptoethanol to prevent sticking of protein to capillaries.
(§1) It should be stressed that the solvent composition of protein and ligand samples were always identical, so that the protein and ligand concentrations were the only variable factors.
The concentration of the labeled protein was kept constant at ~100 nM, while the ligand to protein concentration ratio was in the range of 0.01 to 10^5 nM. The samples were loaded into K002 Monolith™ NT.115 Standard Treated Capillaries, which after 10 min incubation time were analyzed using the Monolith NT.115 (NanoTemper Technologies). […] The numerical model was based on the cubic equation describing the concentration-dependent equilibrium of the apo form of the protein, free ligand, and their 1:1 and 1:2 complexes K1⋅K2⋅[L]^3+(K1+K1⋅K2⋅(2⋅P0-L0))⋅[L]^2+(1+K1⋅(P0-L0))⋅[L]=L0 (1) where P0 and L0 are the total concentrations of the protein and ligand, respectively; K1 and K2 are the […] for 1:1 and 1:2 complexes; and [L] is the concentration of the free ligand. The above equation can be resolved by roots against [L]
Concentrations of 1:1 and 1:2 complexes equal K1∙[P]∙[L] and K1∙K2∙[P]∙[L]^2, respectively. The model was implemented in Origin 9.0 package (www.originlab.com). Dissociation constants, K1 and K2, were estimated globally for a series of 6 MST pseudo-titration experiments, while contributions of three protein forms (i.e. apo, and 1:1 and 1:2 complexes) to the observed MST signal were fitted individually for each experiment (S1 Fig).

[5] = biological target: T1, catalytic subunit of human protein kinase CK2 (hCK2α); experiment: ITC (hCK2α titrated with the ligand), one type of binding sites; conditions: ligand as titrant, 25°C
Experimental: as §1
(§2) All ITC measurements were carried out at 25°C with the Nano ITC calorimeter (TA Instruments), using 250 rpm stirring and 1000 s delay between succeeding injections to the sample cell (950 μl). The first “technical” injection of a reduced volume (4–5 μl) was followed by 12 injections of 20 μl, however 16x15 μl or 10x25 μl schemes were occasionally used. The concentration of reagents varied depending on their affinities and experiment type. Thus 20–200 μM ligand solution was used as the titrant, but only 4–10 μM when placed in the sample cell. Accordingly, the sample cell was filled with 4–30 μM hCK2α solution, while 20–40 μM protein solution was placed in the syringe. For each ligand at least two titration experiments were done with different reagent concentrations, and occasionally with optimized injection volume. […] The resulting data were processed with the standard NanoAnalyze software package (version 3.5.0), assuming the model of one type of binding sites of the apparent stoichiometry close to 1:1. The automatically adjusted integration regions were used to minimize the impact of researcher’s arbitrary decision. The uncertainty of all determined values was estimated as the half-width of 67% confidence interval.

[6] = biological target: T1, catalytic subunit of human protein kinase CK2 (hCK2α); experiment: Reverse ITC (ligand titrated with hCK2α), one type of binding sites; conditions: protein as titrant, 25°C
Experimental: as §1, §2

[7] = biological target: T1, catalytic subunit of human protein kinase CK2 (hCK2α); experiment: Reverse ITC with MST-derived Kd (two types of binding sites, Kd constrained); conditions: for ΔG1 / ΔG2 / Kd: constrained based on the MST-derived binding affinities; for ΔH1 / ΔS1 / ΔH2 / ΔS2: reverse ITC, two-site model, Kd from MST; for ΔH1 / ΔS1: strong site; for ΔH2 / ΔS2: weak site
Experimental: All ITC measurements were carried out at 25°C with the Nano ITC calorimeter (TA Instruments), using 250 rpm stirring and 1000 s delay between succeeding injections to the sample cell (950 μl). The first “technical” injection of a reduced volume (4–5 μl) was followed by 12 injections of 20 μl, however 16x15 μl or 10x25 μl schemes were occasionally used. The concentration of reagents varied depending on their affinities and experiment type. Thus 20–200 μM ligand solution was used as the titrant, but only 4–10 μM when placed in the sample cell. Accordingly, the sample cell was filled with 4–30 μM hCK2α solution, while 20–40 μM protein solution was placed in the syringe. For each ligand at least two titration experiments were done with different reagent concentrations, and occasionally with optimized injection volume. […] The automatically adjusted integration regions were used to minimize the impact of researcher’s arbitrary decision. The uncertainty of all determined values was estimated as the half-width of 67% confidence interval.

[8] = biological target: T1, catalytic subunit of human protein kinase CK2 (hCK2α); experiment: Reverse ITC (ligand titrated with hCK2α), one type of binding sites; conditions: strong site
[9] = strong site, read-out: Kd1 (strong binding site)
[10] = weak site, read-out: Kd2 (weak binding site)

T1 sequence (P68400 whole entry): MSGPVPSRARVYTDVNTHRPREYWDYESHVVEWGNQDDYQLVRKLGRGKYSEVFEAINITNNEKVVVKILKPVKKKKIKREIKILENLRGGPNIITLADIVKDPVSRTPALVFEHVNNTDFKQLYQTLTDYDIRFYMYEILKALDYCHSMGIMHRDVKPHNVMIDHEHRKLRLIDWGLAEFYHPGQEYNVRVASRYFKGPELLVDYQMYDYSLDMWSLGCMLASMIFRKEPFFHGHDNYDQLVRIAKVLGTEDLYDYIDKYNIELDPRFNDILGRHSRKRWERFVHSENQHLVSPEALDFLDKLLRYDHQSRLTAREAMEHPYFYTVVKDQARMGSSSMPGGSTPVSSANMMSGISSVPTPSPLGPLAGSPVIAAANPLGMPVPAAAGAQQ

ΔG1 ([4]; strong site) [kcal/mol]	Kd [4, 9] [nM]	ΔG2 ([4]; weak site) [kcal/mol]	Kd [4, 10] [nM]	Kd [5] [nM]	ΔG [5] [kcal/mol]	ΔH [5] [kcal/mol]	ΔS [5] [J/mol/K]	Kd [6] [nM]	ΔG [6] [kcal/mol]	ΔH [6] [kcal/mol]	ΔS [6] [J/mol/K]	ΔG1 [7]	ΔG2 [7]	Kd ([7]; read-out: Kd1) [nM]	Kd ([7]; read-out: Kd2) [nM]	ΔH1 [7] [kcal/mol]	ΔS1 [7] [J/mol/K]	ΔH2 [7] [kcal/mol]	ΔS2 [7] [J/mol/K]	SMILES	further results
–	–	–	–	–	–	–	–	–	–	–	–	–	–	–	–	–	–	–	–	Brc1c(Br)c(Br)c2[nH]nnc2c1Br [TBBt, tetrabromobenzotriazole]	formation of nano-aggregates (DLS autocorrelation function) [1]: forms nano-aggregates; radius of nano-aggregates ([1]; DLS, 1 mM down to 20 μM): ~ 100 nm and 100 nm; τ, decay of the aggregate population (raw SLS signal) ([1]; after rapid dilution of 500 μM sample): 460 ± 40 s; τ, increase of population of the monomeric form (absorption at 291 nm) ([2]; 40 μM solution, tracked for an hour): 670 ± 40 s; upper limit of ligand concentration at which monomeric form predominates ([2]; UV absorbance, deviation from Lambert-Beer law): 20 to 30 µM; solubility in pure DMSO [3]: 65 mM (≈ 28.3 mg/mL)
-9.01 ± 0.072	246 ± 36	-7.1 ± 0.096	6300 ± 1000	310 ± 89	-8.87 ± 0.14	-16.3 ± 0.72	-102 ± 9	294 ± 73	-8.91 ± 0.12	-16.7 ± 0.72	-110 ± 10	-37.7 ^x kJ/mol	-29.7 ^x kJ/mol	246	6300	-17.4 ± 1.2	-118 ± 15	1.7 ± 5.5	123 ± 77	Brc1ccc2nn[nH]c2c1 [5-BrBt]	formation of nano-aggregates (DLS autocorrelation function) [1]: no such effect was observed; plot of concentration versus absorbance (Lambert-Beer law) ([2]; control experiment): remained linear
-9.68 ± 0.14	81 ± 22	-7.31 ± 0.072	4400 ± 500	1170 ± 270	-8.1 ± 0.12	-15.1 ± 0.48	-97 ± 8	46 ± 10	-10 ± 0.12	-17 ± 0.48	-98 ± 6	-40.5 ^x kJ/mol	-30.6 ^x kJ/mol	81	4400	-18.6 ± 3.11	-126 ± 43	2.63 ± 8.13	140 ± 114	Brc1cc2nn[nH]c2cc1Br [5,6-Br2Bt, 5,6-dibromobenzotriazole]	–
-9.66 ± 0.17	83 ± 29	-7.29 ± 0.17	4600 ± 1400	990 ± 270	-8.2 ± 0.14	-8.37 ± 0.48	-2 ± 5	42 ± 17	-10.1 ± 0.19	-9.56 ± 0.24	9 ± 4	-40.4 ^x kJ/mol	-30.5 ^x kJ/mol	83	4600	-10.5 ± 0.48	-12 ± 9	0.48 ± 2.2	109 ± 31	Brc1cc2[nH]nnc2c(Br)c1Br [4,5,6-Br3Bt, 4,5,6-tribromobenzotriazole]	entropic contribution to binding [8]: favorable entropic contribution

Source: article PMC5342230, “ITC-derived binding affinity may be biased due to titrant (nano)-aggregation. Binding of halogenated benzotriazoles to the catalytic domain of human protein kinase CK2” (PLoS ONE, 2017)
